One compound from US8981091B2, “Pest control composition” (Sumitomo Chemical Company, Limited, priority 2011, dated 2015) can be followed below.

What all share (format): in vivo
For assay [1], the system named is Tetranychus urticae. As to the kind of experiment: Test Example 1: foliar spray on kidney bean leaves carrying Tetranychus urticae adults, insect death rate. As to conditions: etoxazole 0.000781 ppm alone, 2 days after treatment. The procedure: Kidney beans (Nagauzura saitou) were planted (one plant per container) in plastic containers (volume: 90 ml) and grown until the primary leaves had fully expanded. Only one leaf of each kidney bean plant was left on the plant and all the other leaves were removed from the plant. Then, 5 adults of Tetranychus urticae were released on each leaf.
(§1) A suspension concentrate containing 10.0% by weight of etoxazole [product name: Baroque (registered trademark) flowable, manufactured by Kyoyu Agri Co., Ltd.] was diluted with water containing 0.02% by volume of a spreading agent [product name: Sindain (registered trademark), manufactured by Sumitomo Chemical Co., […]
(§2) A reference standard containing 99.9% by weight of fenazaquin was diluted with water containing 0.02% by volume of a spreading agent [product name: Sindain (registered trademark), manufactured by Sumitomo Chemical Co., Ltd.] so that the concentration of fenazaquin became 50 ppm. […]
Three days after the release of the insects, each test solution was sprayed onto the leaves of kidney bean plants and the leaves were air-dried. […] An insect death rate was calculated according to the following equation. […]

Assay [2] deals with Tetranychus urticae. The assay is described as follows: Test Example 2: foliar spray on kidney bean leaves carrying Tetranychus urticae adults, insect death rate. The following applies: etoxazole 0.8 ppm alone, 3 days after treatment. The procedure: Kidney beans (Nagauzura saitou) were planted (one plant per container) in plastic containers (volume: 90 ml) and grown until the primary leaves had fully expanded. Only one leaf of each kidney bean plant was left on the plant and all the other leaves were removed from the plant. Then, 10 adults of Tetranychus urticae were released on each leaf.
as §1, §2
Four days after the release of the insects, each test solution was sprayed onto the leaves of kidney bean plants and the leaves were air-dried. […] An insect death rate was calculated according to the following equation. […]

Another assay deals with Bemisia tabaci. As to the kind of experiment: Test Example 3: spray on cabbage seedlings carrying Bemisia tabaci, insect death rate. The following applies: 2 days after treatment. On the procedure:
Cabbages (Green ball) were planted (one plant per container) in plastic containers (volume: 90 ml) and grown until the third to fourth leaf stage. Only one leaf of each cabbage plant was left on the plant and all the other leaves were removed from the plant. The plastic containers were put into a net cage containing a lot of living Bemisia tabaci and allowed to stand for 24 hours. After that, the plastic containers were taken out from the cage and the number of living insects (Bemisia tabaci) on the cabbage seedlings was determined (This is called the “number of insects before treatment”).
A suspension concentrate containing 10.0% by weight of etoxazole [product name: Baroque (registered trademark) flowable, manufactured by Kyoyu Agri Co., Ltd.] was diluted with water containing 0.02% by volume of a spreading agent [product name: Sindain (registered trademark), manufactured by Sumitomo Chemical Co., Ltd.] so that the concentration of etoxazole became 800 ppm.
A reference standard containing 99.9% by weight of fenazaquin was diluted with water containing 0.02% by volume of a spreading agent [product name: Sindain (registered trademark), manufactured by Sumitomo Chemical Co., Ltd.] so that the concentration of fenazaquin became 50 ppm.
The water dilution of etoxazole, the water dilution of fenazaquin, and water containing 0.02% by volume of a spreading agent [product name: Sindain (registered trademark), manufactured by Sumitomo Chemical Co., Ltd.] were mixed to prepare a test solution with a predetermined concentration of etoxazole and/or fenazaquin.
Then, each test solution was sprayed onto the plastic containers to sufficiently soak cabbage seedlings, and allowed to stand for room temperature (about 25° C.). Two days after the treatment, the number of living insects (Bemisia tabaci) on the cabbage seedlings was determined (This is called the “number of insects after treatment”).
An insect death rate was calculated according to the following equation. For each treatment there are duplicates. […]

For the compound `CCOc1cc(C(C)(C)C)ccc1C1COC(c2c(F)cccc2F)=N1` (centres unmarked) [Etoxazole, 2-(2,6-difluorophenyl)-4-[4-(1,1-dimethylethyl)-2-ethoxyphenyl]-4,5-dihydrooxazole], the “Insect death rate (%)” value in the assay on Tetranychus urticae [1] worked out at 10%; in the assay with Tetranychus urticae [2], 15%; with Bemisia tabaci (etoxazole 50 ppm alone) it was 15%; in the assay on Bemisia tabaci (etoxazole 200 ppm alone), 17%; in the assay with Bemisia tabaci (etoxazole 800 ppm alone), 32%.
